Assay results: paper PMC5529018, “Discovery of novel brain permeable and G protein-biased beta-1 adrenergic receptor partial agonists for the treatment of neurocognitive disorders” (PLoS ONE, 2017)

Experiments:
ADRB1 [1] = biological target: T1, ADRB1 (Homo sapiens, UniProt P08588); experiment: β-arrestin assay (PathHunter enzyme fragment complementation); assay type: cell-based; parameters: host or cells: CHO-K1 (PathHunter)
Description: Pharmacological activity of compounds in the β-arrestin pathway mediated by ADRB1 were evaluated using an enzyme fragment complementation method with a β‐galactosidase functional reporter. An engineered CHO-K1-ADRB1 PathHunter cell line (DiscoveRx) was used in the assay. In this cell line, the enzyme acceptor (β‐galactosidase fragment) is fused to β-arrestin and the enzyme donor (β‐galactosidase fragment) is fused to the ADRB1. Thus, activation of the ADRB1 stimulates binding of β-arrestin to the ProLink-tagged ADRB1 and forces complementation of the two enzyme fragments, resulting in the formation of an active β‐galactosidase enzyme. Briefly, CHO-K1-ADRB1 PathHunter cell lines were plated in a total volume of 20 μL cell plating reagent (DiscoveRx, 93-0563R0A) at a density of 2,500 cells/well into 384 well microplates and incubated overnight at 37°C in 5% CO2. […] Chemiluminescent signal was then read with a PerkinElmer Envision (Perkin Elmer, Inc., MA) instrument. The results were expressed as a percent of the maximum efficacy achieved with isoproterenol.

ADRB1 [2] = biological target: T1, ADRB1; experiment: cAMP assay (HTRF), ADRB1; assay type: cell-based; parameters: expressed in transfected cells; host or cells: HEK-293; conditions: for Emax: 0.5 h, percent efficacy vs maximum response of isoproterenol, read-out: cAMP pathway ADRB1 % Iso max; for EC50 / cAMP pathway ADRB1 EC50: HEK-293 cells, geometric mean (95% confidence limits) of at least two experiments; for EC50: read-out: cAMP pathway ADRB1 EC50; for ADRB1 agonist activity (cAMP pathway), in words: compared to xamoterol (S)
Description: Pharmacological effects of compounds at the cAMP pathway mediated by ADRB1 were evaluated by measuring cAMP production using the homogenous time-resolved fluorescence detection method with HEK-293 cells stably expressing human recombinant ADRB1. Briefly, cells were suspended in HBSS buffer completed with 20 mM HEPES (pH 7.4) and 500 μM IBMX (3-isobutyl-1-methylxanthine) and distributed at a density of 3x10^3 cells/well. […] Following incubation, the cells were lysed and the fluorescence acceptor (D2-labeled cAMP) and fluorescence donor (anti-cAMP antibody labeled with europium cryptate) were added. […] The results were expressed as a percent of the maximum efficacy achieved with isoproterenol. Pharmacological effects of compounds at the cAMP pathway mediated by ADRB2 and ADRB3 were measured as described above using CHO cells stably expressing human recombinant ADRB2 and human SK-N-MC neurotumor cells endogenously expressing ADRB3, respectively.

[3] = test system: LPS-induced TNFα production in primary microglia; experiment: In vitro primary microglia TNFα assay; assay type: cell-based, Sprague Dawley rat; conditions: Rattus norvegicus, 4 h, read-out: inhibition of LPS-induced TNFα production
Description: Mixed glial cells were obtained from the cerebral cortex of Sprague Dawley rat pups at postnatal days 1–3. Briefly, neonates were euthanized by decapitation and their brain tissues were collected for cortex isolation. The isolated cortex was then trypsinized, triturated, and placed into tissue culture flasks in DMEM supplemented with 10% fetal bovine serum and 1% Penicillin/Streptomycin. After 10 days in vitro, microglia were harvested by gentle shaking of the growth flask, plated in a 96 well plate at a density of 30,000 cells/well, and incubated at 37°C overnight.

[4] = biological target: panel of CNS relevant targets, including G protein-coupled receptors and transporters; experiment: Off-target binding screen, panel of CNS relevant targets; conditions: broad range of neurotransmitter transporters, ion channels and other CNS proteins; read-out: off-target affinity Ki
[5] = test system: LPS-induced TNFα response; experiment: In vivo LPS assay; parameters: species or system C57Bl/6J mice; conditions: 90 min post-LPS
Description: ; subcutaneous; […]; intraperitoneal; n = 4) or vehicle (5% DMSO/20%PEG400/water; intraperitoneal; n = 12) 15 min prior to LPS (50 ug/kg; intraperitoneal). A control group was injected with vehicle 15 minutes prior to saline (n = 18). Following injections, mice were single-housed. At 90 min post-LPS/saline, mice were deeply anesthetized with isoflurane and blood was collected from the right ventricle via cardiac puncture (23 g needle) into lithium heparin-containing vials (BD microtainer plasma tubes). Subsequently, brains were collected after perfusion with phosphate-buffered saline. Plasma was separated by centrifugation (11,000 rpm for 3 minutes) within 60 min of collection and stored at -80°C until analysis. The concentration of TNFα in the collected plasma was measured by ELISA (Invitrogen, KMC3012) according to the manufacturer’s instruction. The LPS-induced inflammatory response in the CNS was assessed by measuring mRNA expression for genes related to neuroimmune activation in brain tissue according to the previously reported method. Briefly, total RNA was extracted from hippocampus containing coronal sections using the RNeasy Lipid Tissue Mini Kit (Qiagen), and transcribed into cDNA (Superscript III, Invitrogen). PCR was performed in duplicate using TaqMan gene expression assays, TNFα (Mm00443258_m1), IL1b (Mm00434228_m1), IL6 (Mm00446190_m1), and glyceraldehyde-3-phosphate dehydrogenase (GAPDH; Mm99999915_g1). Fold changes of expression relative to control were determined after normalization to GAPDH. Relative quantification and fold change were calculated by the comparative CT method. Brain uptake of STD-101-D1 was determined in brain tissue. […]

[6] = Pharmacokinetic study 2, 20-min post-dose collection; assay type: in vivo, Sprague-Dawley rats; conditions: rat, 10 mg/kg, 20 min post-dose
Description: Two cohorts of Sprague-Dawley rats were used in two independent studies. All animals were fasted overnight before the experiment with free access to water. In study 1, a total of 18 rats were used for a 4 hr time course pharmacokinetic (PK) study. Rats were anesthetized with 3% isoflurane and catheters were implanted into the jugular and/or portal veins for compound administration and/or blood sampling at 1 to 2 days prior to the experiments as previously described. […] Four hours post-dose, rats were deeply anesthetized with isoflurane and blood samples were collected by cardiac puncture. In study 2, a total of 18 rats were used for a 20 min post-dose collection study. […] At 20 min post-dose, rats were deeply anesthetized with isoflurane and blood samples were collected by cardiac puncture. Brains were collected after perfusion with phosphate buffered saline. All plasma samples were immediately separated after collection by centrifugation (11,000 rpm for 3 minutes) and stored at −80°C until analysis. […] Tulobuterol was used as the internal standard. The flow rate was set to 0.45 ml/min. Column temperature was 25°C. […] The injection volume was 20 μl. The mass spectrometer was operated in the positive mode with multiple-reaction monitoring (MRM). […] Mobile phase A consisted of 10 mM ammonium acetate and 0.1% formic acid in LCMS grade water. Mobile phase B consisted of 10 mM ammonium acetate and 0.1% formic acid in LCMS grade acetonitrile:water 90:10% (v/v). […] Five μl of the extracted samples were injected. […] Data acquisition and analysis were performed using the Analyst 1.6.1 software (AB SCIEX, CA).

[7] = Cardiovascular studies (heart rate, blood pressure); assay type: in vivo, Sprague-Dawley rats; conditions: anesthetized rats, 3 mg/kg subcutaneous
Description: A polyethylene catheter (PE50) filled with heparinized saline was then inserted into the tail artery and connected to the blood pressure transducer system. After ensuring the absence of any air bubbles, 5–10 min of baseline systolic and diastolic blood pressure along with heart rate measurements were recorded using LabChart Pro (AD Instruments, CO).

[8] = cited from earlier work

T1 sequence (P08588 whole entry, the tested form may be a part): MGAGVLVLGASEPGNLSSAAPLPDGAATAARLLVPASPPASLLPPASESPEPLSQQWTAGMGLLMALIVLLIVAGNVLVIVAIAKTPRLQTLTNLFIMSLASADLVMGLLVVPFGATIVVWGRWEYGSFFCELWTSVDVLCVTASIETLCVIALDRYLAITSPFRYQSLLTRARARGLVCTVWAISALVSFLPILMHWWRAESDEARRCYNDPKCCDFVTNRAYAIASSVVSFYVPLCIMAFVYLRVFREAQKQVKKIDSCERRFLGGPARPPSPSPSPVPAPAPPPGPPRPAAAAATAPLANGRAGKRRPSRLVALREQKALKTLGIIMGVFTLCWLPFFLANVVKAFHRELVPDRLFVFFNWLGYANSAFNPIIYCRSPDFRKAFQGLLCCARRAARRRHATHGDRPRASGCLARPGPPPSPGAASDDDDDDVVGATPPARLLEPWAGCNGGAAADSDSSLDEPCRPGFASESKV

SMILES: COc1ccc(CCNCC(O)COc2ccc(O)c(O)c2)cc1OC (stereo not shown) [RO363, reference compound]
- EC50 (ADRB1 [1]; CHO-K1-ADRB1 PathHunter cells, read-out: β-arrestin pathway ADRB1 EC50): 32.2 nM
- β-arrestin pathway ADRB1 % Iso max (ADRB1 [1]; percent efficacy vs maximum response of isoproterenol): 36.5%
- decrease in potency vs xamoterol (S), cAMP ADRB1 (ADRB1 [2]): approximately 3 fold
- increase in efficacy vs xamoterol (S), cAMP ADRB1 (ADRB1 [2]): approximately 2 fold
- Emax (ADRB1 [2]): 104 ± 23.9%
- EC50 (ADRB1 [2]): 7.9 nM

SMILES: O=C(NCCNC[C@H](O)COc1cc(Cl)c(O)cc1F)N1CCOCC1 [STD-101-B4, (S)-N-(2-((3-(5-chloro-2-fluoro-4-hydroxyphenoxy)-2-hydroxypropyl)amino)ethyl)morpholine-4-carboxamide]
- cAMP pathway ADRB1 EC50 (ADRB1 [2]): no response
- ADRB1 agonist activity (cAMP pathway), in words (ADRB1 [2]): abolished the agonist activity completely

SMILES: N#Cc1cc(OC[C@@H](O)CNCCNC(=O)N2CCOCC2)ccc1O [STD-101-B6, (S)-N-(2-((3-(3-cyano-4-hydroxyphenoxy)-2-hydroxypropyl)amino)ethyl)morpholine-4-carboxamide]
- Emax (ADRB1 [2]): 25.1 ± 4.7%
- EC50 (ADRB1 [2]): 7.1 nM
- ADRB1 agonist activity (cAMP pathway), in words (ADRB1 [2]): decrease in both potency and efficacy

SMILES: N#Cc1cc(OC[C@@H](O)CNCCNC(=O)N2CCOCC2)c(F)cc1O [STD-101-B8, (S)-N-(2-((3-(5-cyano-2-fluoro-4-hydroxyphenoxy)-2-hydroxypropyl)amino)ethyl)morpholine-4-carboxamide]
- cAMP pathway ADRB1 EC50 (ADRB1 [2]): no response
- ADRB1 agonist activity (cAMP pathway), in words (ADRB1 [2]): abolished the agonist activity completely

SMILES: O=C(NCCNC[C@H](O)COc1cccc2c(O)cccc12)N1CCOCC1 [STD-101-E, (S)-N-(2-((2-hydroxy-3-((5-hydroxynaphthalen-1-yl)oxy)propyl)amino)ethyl)morpholine-4-carboxamide]
- cAMP pathway ADRB1 EC50 (ADRB1 [2]): no response
- ADRB1 agonist activity (cAMP pathway), in words (ADRB1 [2]): inactive

SMILES: O=C(NCCNC[C@H](O)COc1ccc(O)cc1)N1CCOCC1 [Xamoterol (S)]
- inhibition at 10 µM [3]: ~55%
- Ki [4]: > 10000 nM
- LPS-induced systemic (plasma) TNFα response ([5]; 3 mg/kg pre-treatment 15 min prior to LPS): markedly inhibited

SMILES: O=C(NCCNCC(O)COc1ccc(O)cc1)N1CCOCC1 (stereo not shown) [Xamoterol, reference compound]
- plasma concentration after PO as percent of that after IP [6]: 0.2%
- plasma concentration after PO as percent of that after IV [6]: 0.7%
- decrease in blood pressure [7]: 9%
- increase in heart rate [7]: 4%
- CNS inflammatory markers after LPS ([5]; 3 mg/kg subcutaneous pre-treatment): Significant effects of xamoterol were not observed
- oral bioavailability in humans [8]: 5%

SMILES: CC(C)NCC(O)c1ccc(O)c(O)c1 (stereo not shown) [isoproterenol]
- inhibition at 10 µM [3]: ~80%
